Results published in PubChem BioAssay AID1259407 (Chemical Carcinogenesis Research Information System (CCRIS), 2018).
The source made the active and inactive calls. The rule behind the calls is not given here.

System: CCRIS mutagenicity, Ames/micronucleus/aberration tests
Test: CCRIS mutagenicity studies

Structure (SMILES): C=CC(=O)O
- mutagenic call (Test System: AMES SALMONELLA TYPHIMURIUM, Strain/Indicator: TA97, Metabolic Activation: NONE, Method: PREINCUBATION): inactive; negative
- mutagenic call (Test System: AMES SALMONELLA TYPHIMURIUM, Strain/Indicator: TA97, Metabolic Activation: S-9, Method: PREINCUBATION): inactive; negative
- mutagenic call (Test System: AMES SALMONELLA TYPHIMURIUM, Strain/Indicator: TA98, Metabolic Activation: HAMSTER, LIVER, S-9, AROCLOR 1254 (10%), Method: PREINCUBATION): inactive; negative
- mutagenic call (Test System: AMES SALMONELLA TYPHIMURIUM, Strain/Indicator: TA98, Metabolic Activation: HAMSTER, LIVER, S-9, AROCLOR 1254, Method: STANDARD PLATE): inactive; negative
- mutagenic call (Test System: AMES SALMONELLA TYPHIMURIUM, Strain/Indicator: TA98, Metabolic Activation: NONE, Method: PREINCUBATION): inactive; negative
- mutagenic call (Test System: AMES SALMONELLA TYPHIMURIUM, Strain/Indicator: TA98, Metabolic Activation: NONE, Method: STANDARD PLATE): inactive; negative
- mutagenic call (Test System: AMES SALMONELLA TYPHIMURIUM, Strain/Indicator: TA98, Metabolic Activation: RAT LIVER S-9, PHENOBARBITAL AND BETA-NAPHTHOFLAVONE, Method: PREINCUBATION): inactive; negative
- mutagenic call (Test System: AMES SALMONELLA TYPHIMURIUM, Strain/Indicator: TA98, Metabolic Activation: RAT, LIVER, S-9, AROCLOR 1254 (10%), Method: PREINCUBATION): inactive; negative
- mutagenic call (Test System: AMES SALMONELLA TYPHIMURIUM, Strain/Indicator: TA98, Metabolic Activation: RAT, LIVER, S-9, AROCLOR 1254, Method: STANDARD PLATE): inactive; negative
- mutagenic call (Test System: AMES SALMONELLA TYPHIMURIUM, Strain/Indicator: TA98, Metabolic Activation: RAT, LIVER, S-9, AROCLOR, Method: STANDARD PLATE): inactive; negative
- mutagenic call (Test System: AMES SALMONELLA TYPHIMURIUM, Strain/Indicator: TA100, Metabolic Activation: HAMSTER, LIVER, S-9, AROCLOR 1254 (10%), Method: PREINCUBATION): inactive; negative
- mutagenic call (Test System: AMES SALMONELLA TYPHIMURIUM, Strain/Indicator: TA100, Metabolic Activation: HAMSTER, LIVER, S-9, AROCLOR 1254, Method: STANDARD PLATE): inactive; negative
- mutagenic call (Test System: AMES SALMONELLA TYPHIMURIUM, Strain/Indicator: TA100, Metabolic Activation: NONE, Method: PREINCUBATION): inactive; negative
- mutagenic call (Test System: AMES SALMONELLA TYPHIMURIUM, Strain/Indicator: TA100, Metabolic Activation: NONE, Method: STANDARD PLATE): inactive; negative
- mutagenic call (Test System: AMES SALMONELLA TYPHIMURIUM, Strain/Indicator: TA100, Metabolic Activation: RAT LIVER S-9, PHENOBARBITAL AND BETA-NAPHTHOFLAVONE, Method: PREINCUBATION): inactive; negative
- mutagenic call (Test System: AMES SALMONELLA TYPHIMURIUM, Strain/Indicator: TA100, Metabolic Activation: RAT, LIVER, S-9, AROCLOR 1254 (10%), Method: PREINCUBATION): inactive; negative
- mutagenic call (Test System: AMES SALMONELLA TYPHIMURIUM, Strain/Indicator: TA100, Metabolic Activation: RAT, LIVER, S-9, AROCLOR 1254, Method: STANDARD PLATE): inactive; negative
- mutagenic call (Test System: AMES SALMONELLA TYPHIMURIUM, Strain/Indicator: TA100, Metabolic Activation: RAT, LIVER, S-9, AROCLOR, Method: STANDARD PLATE): inactive; negative
- mutagenic call (Test System: AMES SALMONELLA TYPHIMURIUM, Strain/Indicator: TA102, Metabolic Activation: NONE, Method: PREINCUBATION): inactive; negative
- mutagenic call (Test System: AMES SALMONELLA TYPHIMURIUM, Strain/Indicator: TA102, Metabolic Activation: RAT LIVER S-9, PHENOBARBITAL AND BETA-NAPHTHOFLAVONE, Method: PREINCUBATION): inactive; negative
- mutagenic call (Test System: AMES SALMONELLA TYPHIMURIUM, Strain/Indicator: TA102, Metabolic Activation: S-9, Method: PREINCUBATION): inactive; negative
- mutagenic call (Test System: AMES SALMONELLA TYPHIMURIUM, Strain/Indicator: TA104, Metabolic Activation: NONE, Method: PREINCUBATION): inactive; negative
- mutagenic call (Test System: AMES SALMONELLA TYPHIMURIUM, Strain/Indicator: TA104, Metabolic Activation: RAT LIVER S-9, PHENOBARBITAL AND BETA-NAPHTHOFLAVONE, Method: PREINCUBATION): inactive; negative
- mutagenic call (Test System: AMES SALMONELLA TYPHIMURIUM, Strain/Indicator: TA1535, Metabolic Activation: HAMSTER, LIVER, S-9, AROCLOR 1254 (10%), Method: PREINCUBATION): inactive; negative
- mutagenic call (Test System: AMES SALMONELLA TYPHIMURIUM, Strain/Indicator: TA1535, Metabolic Activation: HAMSTER, LIVER, S-9, AROCLOR 1254, Method: STANDARD PLATE): inactive; negative
- mutagenic call (Test System: AMES SALMONELLA TYPHIMURIUM, Strain/Indicator: TA1535, Metabolic Activation: NONE, Method: PREINCUBATION): inactive; negative
- mutagenic call (Test System: AMES SALMONELLA TYPHIMURIUM, Strain/Indicator: TA1535, Metabolic Activation: NONE, Method: STANDARD PLATE): inactive; negative
- mutagenic call (Test System: AMES SALMONELLA TYPHIMURIUM, Strain/Indicator: TA1535, Metabolic Activation: RAT LIVER S-9, PHENOBARBITAL AND BETA-NAPHTHOFLAVONE, Method: PREINCUBATION): inactive; negative
- mutagenic call (Test System: AMES SALMONELLA TYPHIMURIUM, Strain/Indicator: TA1535, Metabolic Activation: RAT, LIVER, S-9, AROCLOR 1254 (10%), Method: PREINCUBATION): inactive; negative
- mutagenic call (Test System: AMES SALMONELLA TYPHIMURIUM, Strain/Indicator: TA1535, Metabolic Activation: RAT, LIVER, S-9, AROCLOR 1254, Method: STANDARD PLATE): inactive; negative
- mutagenic call (Test System: AMES SALMONELLA TYPHIMURIUM, Strain/Indicator: TA1535, Metabolic Activation: RAT, LIVER, S-9, AROCLOR, Method: STANDARD PLATE): inactive; negative
- mutagenic call (Test System: AMES SALMONELLA TYPHIMURIUM, Strain/Indicator: TA1537, Metabolic Activation: HAMSTER, LIVER, S-9, AROCLOR 1254 (10%), Method: PREINCUBATION): inactive; negative
- mutagenic call (Test System: AMES SALMONELLA TYPHIMURIUM, Strain/Indicator: TA1537, Metabolic Activation: HAMSTER, LIVER, S-9, AROCLOR 1254, Method: STANDARD PLATE): inactive; negative
- mutagenic call (Test System: AMES SALMONELLA TYPHIMURIUM, Strain/Indicator: TA1537, Metabolic Activation: NONE, Method: PREINCUBATION): inactive; negative
- mutagenic call (Test System: AMES SALMONELLA TYPHIMURIUM, Strain/Indicator: TA1537, Metabolic Activation: NONE, Method: STANDARD PLATE): inactive; negative
- mutagenic call (Test System: AMES SALMONELLA TYPHIMURIUM, Strain/Indicator: TA1537, Metabolic Activation: RAT LIVER S-9, PHENOBARBITAL AND BETA-NAPHTHOFLAVONE, Method: PREINCUBATION): inactive; negative
- mutagenic call (Test System: AMES SALMONELLA TYPHIMURIUM, Strain/Indicator: TA1537, Metabolic Activation: RAT, LIVER, S-9, AROCLOR 1254 (10%), Method: PREINCUBATION): inactive; negative
- mutagenic call (Test System: AMES SALMONELLA TYPHIMURIUM, Strain/Indicator: TA1537, Metabolic Activation: RAT, LIVER, S-9, AROCLOR 1254, Method: STANDARD PLATE): inactive; negative
- mutagenic call (Test System: AMES SALMONELLA TYPHIMURIUM, Strain/Indicator: TA1537, Metabolic Activation: RAT, LIVER, S-9, AROCLOR, Method: STANDARD PLATE): inactive; negative
- mutagenic call (Test System: AMES SALMONELLA TYPHIMURIUM, Strain/Indicator: TA1538, Metabolic Activation: HAMSTER, LIVER, S-9, AROCLOR 1254, Method: STANDARD PLATE): inactive; negative
- mutagenic call (Test System: AMES SALMONELLA TYPHIMURIUM, Strain/Indicator: TA1538, Metabolic Activation: NONE, Method: STANDARD PLATE): inactive; negative
- mutagenic call (Test System: AMES SALMONELLA TYPHIMURIUM, Strain/Indicator: TA1538, Metabolic Activation: RAT, LIVER, S-9, AROCLOR 1254, Method: STANDARD PLATE): inactive; negative
- mutagenic call (Test System: AMES SALMONELLA TYPHIMURIUM, Strain/Indicator: TA1538, Metabolic Activation: RAT, LIVER, S-9, AROCLOR, Method: STANDARD PLATE): inactive; negative
- mutagenic call (Test System: CHINESE HAMSTER OVARY, Strain/Indicator: CHO-K1-BH4 (HGPRT), Metabolic Activation: NONE): inactive; negative
- mutagenic call (Test System: CHINESE HAMSTER OVARY, Strain/Indicator: CHO-K1-BH4 (HGPRT), Metabolic Activation: RAT, LIVER, S-9, AROCLOR 1254): inactive; negative
- mutagenic call (Test System: E.COLI, Strain/Indicator: WP2UVRA/PKM101, Metabolic Activation: NONE, Method: PREINCUBATION): inactive; negative
- mutagenic call (Test System: E.COLI, Strain/Indicator: WP2UVRA/PKM101, Metabolic Activation: RAT LIVER S-9, PHENOBARBITAL AND BETA-NAPHTHOFLAVONE, Method: PREINCUBATION): inactive; negative
- mutagenic call (Test System: E.COLI, Strain/Indicator: WP2UVRA, Metabolic Activation: NONE, Method: PREINCUBATION): inactive; negative
- mutagenic call (Test System: E.COLI, Strain/Indicator: WP2UVRA, Metabolic Activation: RAT LIVER S-9, PHENOBARBITAL AND BETA-NAPHTHOFLAVONE, Method: PREINCUBATION): inactive; negative
- mutagenic call (Test System: MOUSE LYMPHOMA, Strain/Indicator: L5178Y (TK+/TK-), Metabolic Activation: RAT, LIVER, S-9, AROCLOR 1254, Method: SUSPENSION /PLATE): active; positive
- mutagenic call (Test System: MOUSE LYMPHOMA, Strain/Indicator: L5178Y (TK+/TK-), Metabolic Activation: RAT, LIVER, S-9, AROCLOR 1254, Method: SUSPENSION/PLATE): active; positive. reevaluation of results: positive
- mutagenic call (Test System: MOUSE LYMPHOMA, Strain/Indicator: L5178Y (TK+/TK-), Metabolic Activation: RAT, LIVER, S-9, AROCLOR, Method: SUSPENSION/PLATE): inactive; negative
- mutagenic call (Test System: UDS RAT HEPATOCYTES, Strain/Indicator: THY INCORP, Metabolic Activation: NONE, Method: AUTORADIOGRAPHY): inactive; negative
- mutagenic call (Test System: UDS RODENT CELLS, Strain/Indicator: SHE CELL-MEDIATED, Metabolic Activation: NONE, Method: LIQUID SCINTILLATION COUNTING (THYMIDINE INCORPORATION)): inactive; negative
- mutagenic call (Test System: UDS RODENT HEPATOCYTES, Strain/Indicator: THY INCORP (NON-S-PHASE), Metabolic Activation: NONE, Method: AUTORADIOGRAPHY): inactive; negative
